Read-outs that look alike come from different tables or passages of the source.

In patent US12077503B2, “Substituted cyclic amides and their use as herbicides” (FMC CORPORATION, priority 2015, dated 2024) one finds pest or weed control and plant injury data, which are given here for two compounds.

Holding throughout (format): in vivo
One assay concerns Kochia (Kochia scoparia). Description: Test A preemergence. As to conditions: Bassia scoparia, pre-emergence, 240 h; for pest or weed control at 125 g/ha: 125 g ai/ha, 0 to 100 scale where 0 is no effect and 100 is complete control; for pest or weed control at 500 g/ha: 500 g ai/ha. An outline of the steps: (§1)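 Ratings of 0 (no effect) to 100 (complete control) come from visual comparison with untreated controls roughly 10 d after treatment. Test chemicals, formulated in a non-phytotoxic solvent mixture with surfactant, were applied either as a preemergence directed soil spray on seeded soil or postemergence to one- to two-leaf plants 2 to 10 cm tall.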

Assay [1] has as its system barnyardgrass (Echinochloa crus-galli). Description: Test A preemergence. As to conditions: Echinochloa crus-galli, pre-emergence, 240 h; for pest or weed control at 125 g/ha: 125 g ai/ha, 0 to 100 scale where 0 is no effect and 100 is complete control; for pest or weed control at 500 g/ha: 500 g ai/ha. The gist of the method:
as §1

In assay [2] the test system is giant foxtail (Setaria faberii). Description: Test A preemergence. To be noted: Setaria faberi, pre-emergence, 240 h; for pest or weed control at 125 g/ha: 125 g ai/ha, 0 to 100 scale where 0 is no effect and 100 is complete control; for pest or weed control at 500 g/ha: 500 g ai/ha. The gist of the method:
as §1

Assay [3] has as its system pigweed (Amaranthus retroflexus). Description: Test A preemergence. As to conditions: Amaranthus retroflexus, pre-emergence, 240 h; for pest or weed control at 125 g/ha: 125 g ai/ha, 0 to 100 scale where 0 is no effect and 100 is complete control; for pest or weed control at 500 g/ha: 500 g ai/ha.
In assay [4] the test system is ragweed (common ragweed, Ambrosia elatior). In words: Test A preemergence. To be noted: Ambrosia artemisiifolia, pre-emergence, 240 h; for pest or weed control at 125 g/ha: 125 g ai/ha, 0 to 100 scale where 0 is no effect and 100 is complete control; for pest or weed control at 500 g/ha: 500 g ai/ha. An outline of the steps: as §1
Assay [5] has as its system ryegrass, Italian (Italian ryegrass, Lolium multiflorum). In words: Test A preemergence. To be noted: Lolium multiflorum, pre-emergence, 240 h; for pest or weed control at 125 g/ha: 125 g ai/ha, 0 to 100 scale where 0 is no effect and 100 is complete control; for pest or weed control at 500 g/ha: 500 g ai/ha. The gist of the method: as §1
In assay [6] the test system is Galium (catchweed bedstraw, Galium aparine). In words: Test A postemergence. As to conditions: Galium, post-emergence, 240 h, postemergence; for pest or weed control at 125 g/ha: 125 g ai/ha. An outline of the steps: as §1
In assay [7] the test system is barnyardgrass (Echinochloa crus-galli). In words: Test A postemergence. As to conditions: Echinochloa crus-galli, post-emergence, 240 h, postemergence; for pest or weed control at 125 g/ha: 125 g ai/ha. An outline of the steps: as §1
The next assay deals with corn (Zea mays). Description: Test A postemergence. To be noted: Zea mays, post-emergence, 240 h, postemergence; for plant injury at 125 g/ha: 125 g ai/ha. An outline of the steps: as §1
The test system of assay [8] is ragweed (common ragweed, Ambrosia elatior). In words: Test A postemergence. As to conditions: Ambrosia artemisiifolia, post-emergence, 240 h, postemergence; for pest or weed control at 125 g/ha: 125 g ai/ha. An outline of the steps:
as §1

Assay [9] relates to barnyardgrass (Echinochloa crus-galli). In words: Test B flooded paddy test. To be noted: Echinochloa crus-galli, Flood, 250 g ai/ha, read-out: Barnyardgrass plant response rating. An outline of the steps:
(§2)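 Visual ratings (0 none to 100 complete control) are relative to untreated plants, taken 13–15 d after treatment in a greenhouse. Test material went straight into floodwater standing 3 cm above the soil, kept constant, on plants at the 2-leaf stage.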

The test system of assay [10] is ducksalad (Heteranthera limosa). In words: Test B flooded paddy test. To be noted: Heteranthera limosa, Flood, 250 g ai/ha, read-out: Ducksalad plant response rating. An outline of the steps: as §2
Another assay has as its system rice (Oryra sativa). Description: Test B flooded paddy test. As to conditions: Oryza sativa, Flood, 250 g ai/ha, read-out: Rice plant response rating. An outline of the steps: as §2
For assay [11], the system named is sedge, umbrella (small-flower umbrella sedge, Cyperus difformis). Description: Test B flooded paddy test. As to conditions: Cyperus difformis, Flood, 250 g ai/ha, read-out: Sedge, Umbrella plant response rating. An outline of the steps: as §2
The mark [12] stands for this setting: scale of 0 to 100 where 0 is no effect and 100 is complete control.
The mark [13] stands for this setting: 0 to 100 scale where 0 is no effect and 100 is complete control.

With `CN1C[C@H](c2cccc(COC(F)F)c2)[C@@H](C(=O)Nc2cccc(F)c2F)C1=O` [Compound 873], the pest or weed control at 125 g/ha with Kochia (Kochia scoparia) (preemergence, read-out: Kochia plant response rating) was determined as 80%; in [1] (preemergence, read-out: Barnyardgrass plant response rating), 90%; in assay [2] (preemergence, read-out: Foxtail, Giant plant response rating) it was 90%; in assay [3] (preemergence, read-out: Pigweed plant response rating) it was 40%; in [4] (preemergence, read-out: Ragweed plant response rating), 40%; in assay [5] (preemergence, read-out: Ryegrass, Italian plant response rating), 50%. Further, the pest or weed control at 125 g/ha in assay [6] (visual injury rating after approximately 10 d, read-out: Galium plant response rating (0 to 100 scale, 0 no effect, 100 complete control)) stood at 50%; in assay [7] (visual injury rating after approximately 10 d, read-out: Barnyardgrass plant response rating (0 to 100 scale, 0 no effect, 100 complete control)), 90%; in [8] (visual injury rating after approximately 10 d, read-out: Ragweed plant response rating (0 to 100 scale, 0 no effect, 100 complete control)), 30%. Also, the pest or weed control at 500 g/ha in the assay with Kochia (Kochia scoparia) (Preemergence, visual injury vs untreated controls after approximately 10 d, read-out: Kochia plant response rating (0 to 100 scale where 0 is no effect and 100 is complete control)) turned out to be 90%; in assay [1] (Preemergence, visual injury vs untreated controls after approximately 10 d, read-out: Barnyardgrass plant response rating (0 to 100 scale where 0 is no effect and 100 is complete control)), 90%; in assay [2] (Preemergence, visual injury vs untreated controls after approximately 10 d, read-out: Foxtail, Giant plant response rating (0 to 100 scale where 0 is no effect and 100 is complete control)) it was 100%; in assay [3] (Preemergence, visual injury vs untreated controls after approximately 10 d, read-out: Pigweed plant response rating (0 to 100 scale where 0 is no effect and 100 is complete control)) it was 50%; in assay [4] (Preemergence, visual injury vs untreated controls after approximately 10 d, read-out: Ragweed plant response rating (0 to 100 scale where 0 is no effect and 100 is complete control)), 90%; in [5] (Preemergence, visual injury vs untreated controls after approximately 10 d, read-out: Ryegrass, Italian plant response rating (0 to 100 scale where 0 is no effect and 100 is complete control)), 80%. Further, the plant injury at 125 g/ha with corn (Zea mays) (visual injury rating after approximately 10 d, read-out: Corn plant response rating (0 to 100 scale, 0 no effect, 100 complete control)) was determined as 70%. The pest or weed control at 250 g/ha in assay [9] (setting [12]) was found to be 85%; in assay [10] (setting [12]), 100%; in the assay on rice (Oryra sativa) (setting [12]) it was 0%; in assay [11] (setting [12]), 50%.

On to `CN1C[C@H](c2cc(F)cc(F)c2)[C@@H](C(=O)Nc2cnccc2Cl)C1=O` [Compound 1096], for which the pest or weed control at 125 g/ha was found to be 0% in the assay with Kochia (Kochia scoparia) (preemergence, approx. 10 d, read-out: Kochia plant response rating); 0% in [1] (preemergence, approx. 10 d, read-out: Barnyardgrass plant response rating); 0% in assay [2] (preemergence, approx. 10 d, read-out: Foxtail, Giant plant response rating); 0% in assay [3] (preemergence, approx. 10 d, read-out: Pigweed plant response rating); 0% in [4] (preemergence, approx. 10 d, read-out: Ragweed plant response rating); 0% in assay [5] (preemergence, approx. 10 d, read-out: Ryegrass, Italian plant response rating). In addition, the pest or weed control at 125 g/ha in [6] (visual injury on 0 to 100 scale (0 no effect, 100 complete control), approx. 10 d, read-out: Galium plant response rating) turned out to be 0%; in assay [7] (visual injury on 0 to 100 scale (0 no effect, 100 complete control), approx. 10 d, read-out: Barnyardgrass plant response rating), 0%; in [8] (visual injury on 0 to 100 scale (0 no effect, 100 complete control), approx. 10 d, read-out: Ragweed plant response rating), 0%. Further, the pest or weed control at 500 g/ha with Kochia (Kochia scoparia) (preemergence, visual injury rating about 10 d after treatment, 0 to 100 scale (0 no effect, 100 complete control), read-out: Kochia plant response rating) was found to be 0%; in assay [1] (preemergence, visual injury rating about 10 d after treatment, 0 to 100 scale (0 no effect, 100 complete control), read-out: Barnyardgrass plant response rating), 0%; in [2] (preemergence, visual injury rating about 10 d after treatment, 0 to 100 scale (0 no effect, 100 complete control), read-out: Foxtail, Giant plant response rating) it was 0%; in [3] (preemergence, visual injury rating about 10 d after treatment, 0 to 100 scale (0 no effect, 100 complete control), read-out: Pigweed plant response rating), 0%; in assay [4] (preemergence, visual injury rating about 10 d after treatment, 0 to 100 scale (0 no effect, 100 complete control), read-out: Ragweed plant response rating), 0%; in assay [5] (preemergence, visual injury rating about 10 d after treatment, 0 to 100 scale (0 no effect, 100 complete control), read-out: Ryegrass, Italian plant response rating) it was 0%. The pest or weed control at 500 g/ha in assay [6] (500 g ai/ha, 0 to 100 scale, 0 is no effect, 100 is complete control, read-out: Galium plant response rating) worked out at 0%; in [7] (500 g ai/ha, 0 to 100 scale, 0 is no effect, 100 is complete control, read-out: Barnyardgrass plant response rating) it was 0%; in assay [8] (500 g ai/ha, 0 to 100 scale, 0 is no effect, 100 is complete control, read-out: Ragweed plant response rating), 0%. The plant injury at 125 g/ha in the assay on corn (Zea mays) (visual injury on 0 to 100 scale (0 no effect, 100 complete control), approx. 10 d, read-out: Corn plant response rating) turned out to be 0%. Moreover, the plant injury at 500 g/ha in the assay with corn (Zea mays) (500 g ai/ha, 0 to 100 scale, 0 is no effect, 100 is complete control, read-out: Corn plant response rating) was 0%. Also, the pest or weed control at 250 g/ha in assay [9] (setting [13]) came to 0%; in assay [10] (setting [13]) it was 65%; with rice (Oryra sativa) (setting [13]) it was 0%; in [11] (setting [13]) it was 0%.
